{"source": "the supplement of paper PMC10307832"}
{"compound": "O=C(O)C(Cc1ccccc1[N+](=O)[O-])=NNc1nc(-c2ccc(Cl)c(Cl)c2)cs1 (mixture of isomers) [4EGI-1] + COc1cc2c(Oc3ccc(NC(=O)C4(C(=O)Nc5ccc(F)cc5)CC4)cc3F)ccnc2cc1OCCCN1CCOCC1 [Foretinib] (partner 0.25 µM)", "test": "relative viability (nuclei count vs DMSO), 5 days (fraction); higher = more cells survive", "conditions": "first compound 0.5 µM", "outline": "(§1)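 Dosing by pin tool came one day after lung cancer cell lines were seeded in 1536-well plates, using either one drug or a fixed anchor-drug dose plus five library-drug doses (not always all listed) in √10 steps. After 5 days, nuclei were counted on 4× images. Relative viability is treated-well nuclei count divided by vehicle-well nuclei count, and values are medians of duplicate plates.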"}
{"cell line": "LOU-NH91", "relative viability": 0.944}
{"cell line": "NCI-H358", "relative viability": 0.739}
{"cell line": "NCI-H650", "relative viability": 1.13}
{"cell line": "NCI-H661", "relative viability": 0.999}
{"cell line": "NCI-H727", "relative viability": 1.07}
{"cell line": "NCI-H1299", "relative viability": 1.08}
{"cell line": "NCI-H1563", "relative viability": 0.915}
{"cell line": "NCI-H1623", "relative viability": 0.889}
{"cell line": "NCI-H1703", "relative viability": 0.38}
{"cell line": "NCI-H2342", "relative viability": 1.15}
{"cell line": "SW 900", "relative viability": 0.935}
{"compound": "O=C(O)C(Cc1ccccc1[N+](=O)[O-])=NNc1nc(-c2ccc(Cl)c(Cl)c2)cs1 (mixture of isomers) [4EGI-1] + COc1cc2c(Oc3ccc(NC(=O)C4(C(=O)Nc5ccc(F)cc5)CC4)cc3F)ccnc2cc1OCCCN1CCOCC1 [Foretinib] (partner 0.25 µM)", "test": "relative viability (nuclei count vs DMSO), 5 days (fraction); higher = more cells survive", "conditions": "first compound 1.581 µM", "outline": "as §1"}
{"cell line": "201T", "relative viability": 0.861}
{"cell line": "A549", "relative viability": 0.771}
{"cell line": "A-427", "relative viability": 0.944}
{"cell line": "ABC-1", "relative viability": 0.896}
{"cell line": "BEN", "relative viability": 0.474}
{"cell line": "CAL-12T", "relative viability": 0.857}
{"cell line": "COR-L23", "relative viability": 0.728}
{"cell line": "COR-L 105", "relative viability": 0.172}
{"cell line": "Calu-6", "relative viability": 0.717}
{"cell line": "ChaGo-K-1", "relative viability": 0.935}
{"cell line": "EBC-1", "relative viability": 0.0989}
{"cell line": "EKVX", "relative viability": 0.121}
{"cell line": "EMC-BAC-2", "relative viability": 0.907}
{"cell line": "H3255", "relative viability": 0.788}
{"cell line": "HARA", "relative viability": 0.806}
{"cell line": "HCC-366", "relative viability": 0.701}
{"cell line": "HCC-827", "relative viability": 0.889}
{"cell line": "HOP-62", "relative viability": 0.716}
{"cell line": "IA-LM", "relative viability": 1.04}
{"cell line": "LCLC-97TM1", "relative viability": 0.725}
{"cell line": "LCLC-103H", "relative viability": 0.675}
{"cell line": "NCI-H358", "relative viability": 0.657}
{"cell line": "NCI-H661", "relative viability": 0.94}
{"cell line": "NCI-H727", "relative viability": 1.07}
{"cell line": "NCI-H1299", "relative viability": 1.11}
{"cell line": "NCI-H1563", "relative viability": 0.853}
{"cell line": "NCI-H1623", "relative viability": 0.608}
{"cell line": "NCI-H1703", "relative viability": 0.373}
{"cell line": "NCI-H2342", "relative viability": 1.06}
{"compound": "O=C(O)C(Cc1ccccc1[N+](=O)[O-])=NNc1nc(-c2ccc(Cl)c(Cl)c2)cs1 (mixture of isomers) [4EGI-1] + COc1cc2c(Oc3ccc(NC(=O)C4(C(=O)Nc5ccc(F)cc5)CC4)cc3F)ccnc2cc1OCCCN1CCOCC1 [Foretinib] (partner 0.25 µM)", "test": "relative viability (nuclei count vs DMSO), 5 days (fraction); higher = more cells survive", "conditions": "first compound 5 µM", "outline": "as §1"}
{"cell line": "201T", "relative viability": 1.18}
{"cell line": "A549", "relative viability": 0.996}
{"cell line": "A-427", "relative viability": 0.983}
{"cell line": "ABC-1", "relative viability": 1.17}
{"cell line": "BEN", "relative viability": 0.781}
{"cell line": "CAL-12T", "relative viability": 1.08}
{"cell line": "COR-L23", "relative viability": 0.98}
{"cell line": "COR-L 105", "relative viability": 0.993}
{"cell line": "Calu-6", "relative viability": 0.919}
{"cell line": "ChaGo-K-1", "relative viability": 0.816}
{"cell line": "EBC-1", "relative viability": 0.0859}
{"cell line": "EKVX", "relative viability": 0.925}
{"cell line": "EMC-BAC-2", "relative viability": 1.04}
{"cell line": "EPLC-272H", "relative viability": 0.735}
{"cell line": "H3255", "relative viability": 0.907}
{"cell line": "HARA", "relative viability": 0.965}
{"cell line": "HCC-15", "relative viability": 1.11}
{"cell line": "HCC-78", "relative viability": 0.547}
{"cell line": "HCC-366", "relative viability": 0.905}
{"cell line": "HCC-827", "relative viability": 1.05}
{"cell line": "HOP-62", "relative viability": 1.1}
{"cell line": "IA-LM", "relative viability": 0.966}
{"cell line": "LC-2-ad", "relative viability": 1.02}
{"cell line": "LCLC-97TM1", "relative viability": 0.941}
{"cell line": "LCLC-103H", "relative viability": 0.764}
{"cell line": "LK-2", "relative viability": 1.36}
{"cell line": "LOU-NH91", "relative viability": 0.995}
{"cell line": "NCI-H358", "relative viability": 0.84}
{"cell line": "NCI-H650", "relative viability": 1}
{"cell line": "NCI-H661", "relative viability": 0.994}
{"cell line": "NCI-H727", "relative viability": 0.767}
{"cell line": "NCI-H1299", "relative viability": 1.11}
{"cell line": "NCI-H1563", "relative viability": 0.962}
{"cell line": "NCI-H1623", "relative viability": 0.941}
{"cell line": "NCI-H1703", "relative viability": 0.348}
{"cell line": "NCI-H2342", "relative viability": 1.2}
{"cell line": "SW 900", "relative viability": 0.908}
{"compound": "O=C(O)C(Cc1ccccc1[N+](=O)[O-])=NNc1nc(-c2ccc(Cl)c(Cl)c2)cs1 (mixture of isomers) [4EGI-1] + COc1cc2c(Oc3ccc(NC(=O)C4(C(=O)Nc5ccc(F)cc5)CC4)cc3F)ccnc2cc1OCCCN1CCOCC1 [Foretinib] (partner 0.25 µM)", "test": "relative viability (nuclei count vs DMSO), 5 days (fraction); higher = more cells survive", "conditions": "first compound 15.81 µM", "outline": "as §1"}
{"cell line": "201T", "relative viability": 0.985}
{"cell line": "A549", "relative viability": 0.883}
{"cell line": "A-427", "relative viability": 0.867}
{"cell line": "ABC-1", "relative viability": 0.587}
{"cell line": "BEN", "relative viability": 0.753}
{"cell line": "CAL-12T", "relative viability": 1.07}
{"cell line": "COR-L23", "relative viability": 0.736}
{"cell line": "COR-L 105", "relative viability": 0.863}
{"cell line": "Calu-6", "relative viability": 0.912}
{"cell line": "ChaGo-K-1", "relative viability": 0.975}
{"cell line": "EBC-1", "relative viability": 0.0982}
{"cell line": "EKVX", "relative viability": 0.686}
{"cell line": "EMC-BAC-2", "relative viability": 0.936}
{"cell line": "EPLC-272H", "relative viability": 1.26}
{"cell line": "H3255", "relative viability": 0.775}
{"cell line": "HARA", "relative viability": 0.76}
{"cell line": "HCC-15", "relative viability": 0.94}
{"cell line": "HCC-78", "relative viability": 0.416}
{"cell line": "HCC-366", "relative viability": 0.985}
{"cell line": "HOP-62", "relative viability": 1.17}
{"cell line": "IA-LM", "relative viability": 0.663}
{"cell line": "LC-2-ad", "relative viability": 0.485}
{"cell line": "LCLC-97TM1", "relative viability": 0.936}
{"cell line": "LCLC-103H", "relative viability": 0.733}
{"cell line": "LK-2", "relative viability": 1.42}
{"cell line": "LOU-NH91", "relative viability": 0.545}
{"cell line": "NCI-H358", "relative viability": 0.515}
{"cell line": "NCI-H650", "relative viability": 0.958}
{"cell line": "NCI-H661", "relative viability": 0.714}
{"cell line": "NCI-H727", "relative viability": 1.19}
{"cell line": "NCI-H1299", "relative viability": 1.09}
{"cell line": "NCI-H1563", "relative viability": 0.789}
{"cell line": "NCI-H1623", "relative viability": 0.584}
{"cell line": "NCI-H1703", "relative viability": 0.349}
{"cell line": "NCI-H2342", "relative viability": 1.05}
{"cell line": "SW 900", "relative viability": 0.677}
{"compound": "O=C(O)C(Cc1ccccc1[N+](=O)[O-])=NNc1nc(-c2ccc(Cl)c(Cl)c2)cs1 (mixture of isomers) [4EGI-1] + COc1cc2c(Oc3ccc(NC(=O)C4(C(=O)Nc5ccc(F)cc5)CC4)cc3F)ccnc2cc1OCCCN1CCOCC1 [Foretinib] (partner 0.25 µM)", "test": "relative viability (nuclei count vs DMSO), 5 days (fraction); higher = more cells survive", "conditions": "first compound 50 µM", "outline": "as §1"}
{"cell line": "201T", "relative viability": 0.63}
{"cell line": "A549", "relative viability": 0.697}
{"cell line": "A-427", "relative viability": 0.646}
{"cell line": "ABC-1", "relative viability": 0.271}
{"cell line": "BEN", "relative viability": 0.524}
{"cell line": "CAL-12T", "relative viability": 0.589}
{"cell line": "COR-L23", "relative viability": 0.29}
{"cell line": "COR-L 105", "relative viability": 0.728}
{"cell line": "Calu-6", "relative viability": 0.659}
{"cell line": "ChaGo-K-1", "relative viability": 0.799}
{"cell line": "EBC-1", "relative viability": 0.103}
{"cell line": "EKVX", "relative viability": 0.815}
{"cell line": "EMC-BAC-2", "relative viability": 0.984}
{"cell line": "EPLC-272H", "relative viability": 0.132}
{"cell line": "H3255", "relative viability": 0.823}
{"cell line": "HARA", "relative viability": 0.175}
{"cell line": "HCC-15", "relative viability": 0.481}
{"cell line": "HCC-78", "relative viability": 0.525}
{"cell line": "HCC-366", "relative viability": 0.308}
{"cell line": "HCC-827", "relative viability": 0.339}
{"cell line": "HOP-62", "relative viability": 0.656}
{"cell line": "IA-LM", "relative viability": 0.0865}
{"cell line": "LC-2-ad", "relative viability": 0.283}
{"cell line": "LCLC-97TM1", "relative viability": 0.127}
{"cell line": "LCLC-103H", "relative viability": 0.367}
{"cell line": "LK-2", "relative viability": 0.929}
{"cell line": "LOU-NH91", "relative viability": 0.906}
{"cell line": "NCI-H358", "relative viability": 0.11}
{"cell line": "NCI-H650", "relative viability": 0.897}
{"cell line": "NCI-H661", "relative viability": 0.313}
{"cell line": "NCI-H727", "relative viability": 0.324}
{"cell line": "NCI-H1299", "relative viability": 1.06}
{"cell line": "NCI-H1563", "relative viability": 0.557}
{"cell line": "NCI-H1623", "relative viability": 0.707}
{"cell line": "NCI-H1703", "relative viability": 0.326}
{"cell line": "NCI-H2342", "relative viability": 0.831}
{"cell line": "SW 900", "relative viability": 0.546}
